Reference: ChEMBL document CHEMBL1201862, “PubChem BioAssay data set” (2004)
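These data come from cells grown in 96-well plates and exposed to compound for 48 hours at five concentrations. At the GI50, growth is halved.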 Activity calls are given as the source filed them. Cut-off read from the data, not from the text of the source: active = GI50 up to about 1.1 µM and inactive = higher.

Experiments:
Assay in all cases: NCI anticancer screen, dose series, 48 h
HCC 2998 = tested on: HCC 2998
IGROV-1 = tested on: IGROV-1
SK-MEL-5 = tested on: SK-MEL-5
Malme-3M = tested on: Malme-3M
COLO 205 = tested on: COLO 205
MDA-MB-435 = tested on: MDA-MB-435
SF-539 = tested on: SF-539
A498 = tested on: A498
SK-MEL-28 = tested on: SK-MEL-28
T47D = tested on: T47D
CAKI-1 = tested on: CAKI-1
SN12C = tested on: SN12C
HCT-116 = tested on: HCT-116
PC-3 = tested on: PC-3
SK-OV-3 = tested on: SK-OV-3
Hs-578T = tested on: Hs-578T
NCI-H23 = tested on: NCI-H23
MOLT-4 = tested on: MOLT-4
HT-29 = tested on: HT-29
SK-MEL-2 = tested on: SK-MEL-2
BT-549 = tested on: BT-549
U-251 = tested on: U-251
K562 = tested on: K562
KM12 = tested on: KM12
MDA-N = tested on: MDA-N
HOP-62 = tested on: HOP-62
OVCAR-3 = tested on: OVCAR-3
HCT-15 = tested on: HCT-15
TK-10 = tested on: TK-10
OVCAR-8 = tested on: OVCAR-8
OVCAR-5 = tested on: OVCAR-5
SR = tested on: SR
UACC-257 = tested on: UACC-257
NCI/ADR-RES = tested on: NCI/ADR-RES
SW-620 = tested on: SW-620
SNB-75 = tested on: SNB-75
UO-31 = tested on: UO-31
CCRF-CEM = tested on: CCRF-CEM
NCI-H226 = tested on: NCI-H226
SF-295 = tested on: SF-295
M14 = tested on: M14
HL-60 = tested on: HL-60
NCI-H522 = tested on: NCI-H522
DU-145 = tested on: DU-145
NCI-H460 = tested on: NCI-H460
786-0 = tested on: 786-0
UACC-62 = tested on: UACC-62
SF-268 = tested on: SF-268
A549 = tested on: A549
MDA-MB-231 = tested on: MDA-MB-231
MCF7 = tested on: MCF7
ACHN = tested on: ACHN
SNB-19 = tested on: SNB-19
OVCAR-4 = tested on: OVCAR-4
RPMI-8226 = tested on: RPMI-8226
RXF 393 = tested on: RXF 393
EKVX = tested on: EKVX
LOX IMVI = tested on: LOX IMVI
HOP-92 = tested on: HOP-92

O=C(CCCn1ccnc1[N+](=O)[O-])NCCn1ccnc1
GI50 (HCC 2998): > 100 µM (inactive)
GI50 (IGROV-1): > 100 µM (inactive)
GI50 (SK-MEL-5): > 100 µM (inactive)
GI50 (Malme-3M): > 100 µM (inactive)
GI50 (COLO 205): 67 µM (inactive)
GI50 (MDA-MB-435): > 100 µM (inactive)
GI50 (SF-539): > 100 µM (inactive)
GI50 (A498): > 100 µM (inactive)
GI50 (SK-MEL-28): > 100 µM (inactive)
GI50 (T47D): > 100 µM (inactive)
GI50 (CAKI-1): > 100 µM (inactive)
GI50 (SN12C): > 100 µM (inactive)
GI50 (HCT-116): > 100 µM (inactive)
GI50 (PC-3): > 100 µM (inactive)
GI50 (SK-OV-3): > 100 µM (inactive)
GI50 (Hs-578T): > 100 µM (inactive)
GI50 (NCI-H23): > 100 µM (inactive)
GI50 (MOLT-4): > 100 µM (inactive)
GI50 (HT-29): > 100 µM (inactive)
GI50 (SK-MEL-2): > 100 µM (inactive)
GI50 (BT-549): > 100 µM (inactive)
GI50 (U-251): > 100 µM (inactive)
GI50 (K562): > 100 µM (inactive)
GI50 (KM12): > 100 µM (inactive)
GI50 (MDA-N): > 10 µM (inactive)
GI50 (HOP-62): > 100 µM (inactive)
GI50 (OVCAR-3): > 100 µM (inactive)
GI50 (HCT-15): > 100 µM
GI50 (TK-10): > 100 µM (inactive)
GI50 (OVCAR-8): > 100 µM (inactive)
GI50 (OVCAR-5): > 100 µM (inactive)
GI50 (SR): > 100 µM (inactive)
GI50 (UACC-257): > 100 µM (inactive)
GI50 (NCI/ADR-RES): > 100 µM (inactive)
GI50 (SW-620): > 100 µM (inactive)
GI50 (SNB-75): > 100 µM (inactive)
GI50 (UO-31): > 100 µM (inactive)
GI50 (CCRF-CEM): > 100 µM (inactive)
GI50 (NCI-H226): > 100 µM (inactive)
GI50 (SF-295): > 100 µM (inactive)
GI50 (M14): > 100 µM (inactive)
GI50 (HL-60): > 100 µM (inactive)
GI50 (NCI-H522): > 100 µM (inactive)
GI50 (DU-145): > 100 µM (inactive)
GI50 (NCI-H460): > 100 µM (inactive)
GI50 (786-0): > 100 µM (inactive)
GI50 (UACC-62): > 100 µM (inactive)
GI50 (SF-268): > 100 µM (inactive)
GI50 (A549): > 100 µM (inactive)
GI50 (MDA-MB-231): > 100 µM (inactive)
GI50 (MCF7): > 100 µM (inactive)
GI50 (ACHN): > 100 µM (inactive)
GI50 (SNB-19): > 100 µM (inactive)

COC(=O)CCC1=NCC(C)(C)O1
GI50 (HCC 2998): > 10 µM (inactive)
GI50 (OVCAR-4): > 10 µM (inactive)
GI50 (IGROV-1): > 10 µM (inactive)
GI50 (SK-MEL-5): > 10 µM (inactive)
GI50 (RPMI-8226): > 10 µM (inactive)
GI50 (Malme-3M): > 10 µM (inactive)
GI50 (COLO 205): > 10 µM (inactive)
GI50 (MDA-MB-435): > 10 µM (inactive)
GI50 (RXF 393): > 10 µM (inactive)
GI50 (SF-539): > 10 µM (inactive)
GI50 (A498): > 10 µM (inactive)
GI50 (SK-MEL-28): > 10 µM (inactive)
GI50 (T47D): > 10 µM (inactive)
GI50 (CAKI-1): > 10 µM (inactive)
GI50 (SN12C): > 10 µM (inactive)
GI50 (HCT-116): > 10 µM (inactive)
GI50 (PC-3): > 10 µM (inactive)
GI50 (SK-OV-3): > 10 µM (inactive)
GI50 (Hs-578T): > 10 µM (inactive)
GI50 (NCI-H23): > 10 µM (inactive)
GI50 (MOLT-4): > 10 µM (inactive)
GI50 (HT-29): > 10 µM (inactive)
GI50 (SK-MEL-2): > 10 µM (inactive)
GI50 (BT-549): > 10 µM (inactive)
GI50 (U-251): > 10 µM (inactive)
GI50 (K562): 0.182 µM (active)
GI50 (KM12): > 10 µM (inactive)
GI50 (MDA-N): > 10 µM (inactive)
GI50 (HOP-62): > 10 µM (inactive)
GI50 (OVCAR-3): > 10 µM (inactive)
GI50 (HCT-15): > 10 µM
GI50 (TK-10): > 10 µM (inactive)
GI50 (OVCAR-8): > 10 µM (inactive)
GI50 (OVCAR-5): > 10 µM (inactive)
GI50 (SR): > 10 µM (inactive)
GI50 (UACC-257): > 10 µM (inactive)
GI50 (NCI/ADR-RES): > 10 µM (inactive)
GI50 (SW-620): > 10 µM (inactive)
GI50 (SNB-75): 2.79 µM (inactive)
GI50 (UO-31): > 10 µM (inactive)
GI50 (CCRF-CEM): > 10 µM (inactive)
GI50 (NCI-H226): > 10 µM (inactive)
GI50 (EKVX): > 10 µM (inactive)
GI50 (SF-295): > 10 µM (inactive)
GI50 (M14): > 10 µM (inactive)
GI50 (NCI-H522): > 10 µM (inactive)
GI50 (DU-145): > 10 µM (inactive)
GI50 (NCI-H460): > 10 µM (inactive)
GI50 (786-0): > 10 µM (inactive)
GI50 (UACC-62): > 10 µM (inactive)
GI50 (SF-268): > 10 µM (inactive)
GI50 (A549): > 10 µM (inactive)
GI50 (MDA-MB-231): > 10 µM (inactive)
GI50 (MCF7): > 10 µM (inactive)
GI50 (LOX IMVI): > 10 µM (inactive)
GI50 (ACHN): > 10 µM (inactive)
GI50 (SNB-19): > 10 µM (inactive)

CNC(=O)C1(N)c2ccccc2C=Cc2ccccc21
GI50 (OVCAR-4): > 100 µM (inactive)
GI50 (IGROV-1): > 100 µM (inactive)
GI50 (SK-MEL-5): > 100 µM (inactive)
GI50 (RPMI-8226): > 100 µM (inactive)
GI50 (Malme-3M): > 100 µM (inactive)
GI50 (COLO 205): > 100 µM (inactive)
GI50 (MDA-MB-435): > 100 µM (inactive)
GI50 (SF-539): > 100 µM (inactive)
GI50 (A498): > 100 µM (inactive)
GI50 (SK-MEL-28): > 100 µM (inactive)
GI50 (T47D): > 100 µM (inactive)
GI50 (CAKI-1): > 100 µM (inactive)
GI50 (SN12C): > 100 µM (inactive)
GI50 (HCT-116): > 100 µM (inactive)
GI50 (PC-3): > 100 µM (inactive)
GI50 (SK-OV-3): > 100 µM (inactive)
GI50 (Hs-578T): > 100 µM (inactive)
GI50 (NCI-H23): > 100 µM (inactive)
GI50 (MOLT-4): > 100 µM (inactive)
GI50 (HT-29): > 100 µM (inactive)
GI50 (SK-MEL-2): > 100 µM (inactive)
GI50 (BT-549): > 100 µM (inactive)
GI50 (U-251): > 100 µM (inactive)
GI50 (K562): > 100 µM (inactive)
GI50 (HOP-92): > 100 µM (inactive)
GI50 (KM12): > 100 µM (inactive)
GI50 (MDA-N): > 100 µM (inactive)
GI50 (HOP-62): > 100 µM (inactive)
GI50 (OVCAR-3): > 100 µM (inactive)
GI50 (HCT-15): > 100 µM
GI50 (TK-10): > 100 µM (inactive)
GI50 (OVCAR-8): > 100 µM (inactive)
GI50 (OVCAR-5): > 100 µM (inactive)
GI50 (SR): > 100 µM (inactive)
GI50 (NCI/ADR-RES): > 100 µM (inactive)
GI50 (SW-620): > 100 µM (inactive)
GI50 (UO-31): > 100 µM (inactive)
GI50 (CCRF-CEM): > 100 µM (inactive)
GI50 (NCI-H226): > 100 µM (inactive)
GI50 (EKVX): > 100 µM (inactive)
GI50 (SF-295): > 100 µM (inactive)
GI50 (M14): > 100 µM (inactive)
GI50 (HL-60): > 100 µM (inactive)
GI50 (NCI-H522): > 100 µM (inactive)
GI50 (DU-145): > 100 µM (inactive)
GI50 (786-0): > 100 µM (inactive)
GI50 (UACC-62): > 100 µM (inactive)
GI50 (SF-268): > 100 µM (inactive)
GI50 (A549): > 100 µM (inactive)
GI50 (MDA-MB-231): > 100 µM (inactive)
GI50 (MCF7): > 100 µM (inactive)
GI50 (LOX IMVI): > 100 µM (inactive)
GI50 (ACHN): > 100 µM (inactive)
GI50 (SNB-19): > 100 µM (inactive)
